Measured values from the CheMixHub viscosity set.

Assay: xn = mol fraction of the nth substance listed

O=C1CCCCC1 + CCOC(=O)OCC
viscosity [mPa·s], 101 kPa
Details	x2 = 0.0898	x2 = 0.1505	x2 = 0.2556	x2 = 0.3587	x2 = 0.4619	x2 = 0.5665	x2 = 0.6701	x2 = 0.7601	x2 = 0.8945	x2 = 0.9487
303.15 K	1.626	1.498	1.321	1.156	1.028	0.911	0.825	0.768	0.719	0.708
308.15 K	1.479	1.37	1.202	1.056	0.937	0.837	0.759	0.711	0.669	0.658
313.15 K	1.375	1.274	1.116	0.981	0.873	0.784	0.714	0.668	0.626	0.617

CC(=O)CC(C)C + CCOCCO
298.15 K, 101.33 kPa
Details	viscosity [mPa·s]
x1 = 0.1481	1.043
x1 = 0.2727	0.943
x1 = 0.3972	0.854
x1 = 0.511	0.782
x1 = 0.6235	0.718
x1 = 0.7252	0.664
x1 = 0.824	0.617
x1 = 0.8892	0.588

CCC(C)N (configuration not stated) + CCOCCO
308.15 K, 101 kPa
Details	viscosity [mPa·s]
x2 = 0.1045	0.5211
x2 = 0.208	0.6419
x2 = 0.3105	0.7668
x2 = 0.412	0.8957
x2 = 0.5124	1.016
x2 = 0.6188	1.13
x2 = 0.7103	1.217
x2 = 0.8078	1.304
x2 = 0.9043	1.385

CCCCCCO + CN1CCCC1=O
viscosity [mPa·s], 100 kPa
Details	x1 = 0.1042	x1 = 0.2	x1 = 0.302	x1 = 0.3995	x1 = 0.4998	x1 = 0.5996	x1 = 0.6992	x1 = 0.7985	x1 = 0.8981	x1 = 0.9469
293.15 K	1.95	2.073	2.222	2.385	2.581	2.824	3.148	3.595	4.278	4.729
298.15 K	1.786	1.894	2.02	2.157	2.321	2.521	2.791	3.158	3.711	4.048
303.15 K	1.645	1.739	1.845	1.961	2.099	2.266	2.49	2.791	3.24	3.53
308.15 K	1.522	1.603	1.693	1.791	1.907	2.046	2.233	2.481	2.844	3.083
313.15 K	1.412	1.483	1.56	1.643	1.741	1.857	2.012	2.217	2.51	2.708
318.15 K	1.315	1.377	1.442	1.513	1.595	1.692	1.822	1.991	2.226	2.387

CCOCC + CO
101 kPa
Details	viscosity [mPa·s]
298.15 K, x1 = 0.115	0.4734
298.15 K, x1 = 0.1893	0.4296
298.15 K, x1 = 0.2803	0.3846
298.15 K, x1 = 0.3957	0.3378
298.15 K, x1 = 0.5399	0.2953
298.15 K, x1 = 0.7319	0.2553
303.16 K, x1 = 0.04	0.4893
303.16 K, x1 = 0.09	0.4472
303.16 K, x1 = 0.13	0.4312
303.16 K, x1 = 0.2	0.3881
303.16 K, x1 = 0.27	0.3392
303.16 K, x1 = 0.37	0.2921
303.16 K, x1 = 0.51	0.2772
303.16 K, x1 = 0.67	0.2511
303.16 K, x1 = 0.85	0.2328
